According to publication PMC8443859 (Journal of Traditional and Complementary Medicine, 2021):
*1 amine or outer side, *2 acyl side, *3 side chain or, on linkers, in order; H or OH if unused. Where a SMILES comes first, the peptide text is derived from it. Bridges are numbered along the chain shown (N, C = ends). Roman numbers before positions name the chains, in order. [ ]: non-standard residue; d: D form. Actinocin(9to1) = Cc1c2oc3c(C)ccc(C(=O)[*:1])c3nc-2c(C(=O)[*:2])c(N)c1=O; NMeV = CN[C@H](C(=O)O)C(C)C; Sar = CNCC(=O)O

Experiments:
measles virus = details: Vero cells; cited from earlier work
[1] = molecular target: S1 domain of SARS-CoV-2 spike protein (Severe acute respiratory syndrome coronavirus 2, UniProt P0DTC2); experiment: biochemical; format: binding
[2] = tested on: lentivirus particles pseudotyped (Vpp) with SARS-CoV-2 Spike protein; experiment: organism not typed; format: cell-based; details: for inhibition at 10 µM: HEK-293T, read-out: inhibition of SARS-CoV-2 viral infection efficacy
293T cells = experiment: Cell viability, MTT assay; format: cell-based; details: Homo sapiens, HEK-293T, 48 h, read-out: IC50 cell viability
[3] = annotation, ref TDEC website; cited from earlier work
adenovirus = details: 293 cells; cited from earlier work
[4] = tested on: interaction between viral spike protein and ACE2 protein; details: cited from earlier work

Row | Structure (SMILES) | inhibition of measles virus replication and RNA synthesis (measles virus) | -TΔS [1] [kcal/mol] | c (c value) [1] | n (reaction stoichiometry) [1] | ΔH [1] [kcal/mol] | Kd [1] [nM] | inhibition at 10 µM [2] [%] | IC50 (293T cells) [nM] | ΔG [1] [kcal/mol] | ΔS [1] [J/mol·K] | Water solubility, Solubility category [3] | inhibition of adenovirus infection (adenovirus) | inhibition of SARS-CoV-2 viral infection efficacy ([2]; 10 µM) | inhibitory activity against spike-ACE2 interaction [4]
1 | Cc1c2oc3c(C)ccc(C(=O)N[C@@H]4C(=O)N[C@H](C(C)C)C(=O)N5CCC[C@H]5C(=O)N(C)CC(=O)N(C)[C@@H](C(C)C)C(=O)O[C@@H]4C)c3nc-2c(C(=O)N[C@@H]2C(=O)N[C@H](C(C)C)C(=O)N3CCC[C@H]3C(=O)N(C)CC(=O)N(C)[C@@H](C(C)C)C(=O)O[C@@H]2C)c(N)c1=O [Actinomycin D] (I: T[dV]P[Sar][NMeV] / II: T[dV]P[Sar][NMeV]; ester I:1-I:C, II:1-II:C; linker I:N-II:N via Actinocin(9to1)) | inhibit measles virus replication and RNA synthesis | – | – | – | – | – | – | – | – | – | – | – | – | –
2 | O=c1cc(-c2ccc(O)c(-c3c(O)cc(O)c4c(=O)cc(-c5ccc(O)cc5)oc34)c2)oc2cc(O)cc(O)c12 [Amentoflavone] | – | 12.3 | 6.4 | 2.731 | -19.63 | 4270 | 50 to 90 | > 100000 | – | – | – | – | – | –
3 | O=C1/C(=c2\c3ccccc3n3c(=O)c4ccccc4nc23)Nc2ccccc21 [Candidine] | – | 17.35 | – | 0.115 | -23.9 | 15700 | – | – | -6.554 | −243.4 | – | – | – | –
4 | CC1=C(O)C(=O)C=C2C1=CC=C1[C@@]2(C)CC[C@@]2(C)[C@@H]3C[C@](C)(C(=O)O)CC[C@]3(C)CC[C@]12C [Celastrol] | – | -47.59 | 8.2 | 1.409 | 39.72 | 1710 | 50 to 90 | 987 | -7.868 | 667.9 | – | – | – | –
5 | O=C1C(C2(C3(C4=Nc5ccccc5C4=O)Nc4ccccc4C3=O)Nc3ccccc3C2=O)=Nc2ccccc21 (stereo not shown) [Cephalinone D] | – | -2.383 | 0.8 | 0.333 | – | – | – | – | – | 33.45 | – | – | – | –
6 | C[C@@H]1CC[C@@]2(OC1)O[C@H]1C[C@H]3[C@@H]4CC=C5C[C@@H](O[C@@H]6O[C@H](CO)[C@@H](O[C@@H]7O[C@@H](C)[C@H](O)[C@@H](O)[C@H]7O)[C@H](O)[C@H]6O[C@@H]6O[C@@H](C)[C@H](O)[C@@H](O)[C@H]6O)CC[C@]5(C)[C@H]4CC[C@]3(C)[C@H]1[C@@H]2C [Dioscin] | – | – | 117.3 | 5.488 | – | 468 | – | 1560 | -8.635 | 110.6 | Moderate | inhibit the initial stage of adenovirus infection | more than 80% | –
7 | CC1(C)[C@@H](O[C@H]2O[C@H](C(=O)O)[C@@H](O)[C@H](O)[C@H]2O[C@@H]2O[C@H](C(=O)O)[C@@H](O)[C@H](O)[C@H]2O)CC[C@]2(C)[C@H]3C(=O)C=C4[C@@H]5C[C@@](C)(C(=O)O)CC[C@]5(C)CC[C@@]4(C)[C@]3(C)CC[C@@H]12 [Glycyrrhizic acid] | – | – | – | – | – | – | – | – | – | – | – | – | – | inhibitory activity against the interaction between viral spike protein and ACE2 protein
